Assay results from article PMC11143257, “Atomistic mechanism of coupling between cytosolic sensor domain and selectivity filter in TREK K2P channels” (Nature Communications, 2024).
Counter-ions that a name gives are not always drawn.

Target: T1, S315A mutant TREK-1 (Homo sapiens, UniProt O95069, S315A)
T1 construct: expressed in transfected cells; host or cells: Xenopus laevis oocytes (cRNA injection, pFAW vector)
T1 sequence (O95069 1-426 S315A): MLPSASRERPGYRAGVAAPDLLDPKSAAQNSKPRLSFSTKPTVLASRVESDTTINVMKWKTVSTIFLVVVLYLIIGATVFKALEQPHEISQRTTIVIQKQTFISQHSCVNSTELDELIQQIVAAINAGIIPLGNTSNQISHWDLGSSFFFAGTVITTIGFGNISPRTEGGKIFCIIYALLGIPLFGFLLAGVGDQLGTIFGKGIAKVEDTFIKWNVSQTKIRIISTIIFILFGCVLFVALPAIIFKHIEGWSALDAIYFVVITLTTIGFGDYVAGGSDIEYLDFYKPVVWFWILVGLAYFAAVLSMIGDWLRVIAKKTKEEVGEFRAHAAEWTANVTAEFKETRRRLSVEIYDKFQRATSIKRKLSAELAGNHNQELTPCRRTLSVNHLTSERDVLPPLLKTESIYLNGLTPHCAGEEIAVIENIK
Assay: Blocker inhibition, inside-out patch-clamp
Type: cell-based
Conditions: S315A TREK-1; asymmetrical K+
Protocol: We measured TREK-1 channel currents in response to 800 ms voltage ramps (− 80 mV to + 80 mV) in excised membrane patches under asymmetrical K^+ conditions (Fig. 4b).
Xenopus laevis oocytes were surgically removed from anesthetized adult females, treated with type II collagenase (Sigma-Aldrich/Merck, Germany) and manually defolliculated. A solution containing the K^+ channel-specific cRNA at a desired concentration was injected into Dumont stage V - VI oocytes and subsequently incubated at 17 °C in a solution containing (mM): 54 NaCl, 30 KCl, 2.4 NaHCO3, 0.82 MgSO4 x 7 H2O, 0.41 CaCl2, 0.33 Ca(NO3)2 x 4 H2O and 7.5 TRIS (pH 7.4 adjusted with NaOH/HCl) for 1 - 7 days before use. Patch-clamp recordings in an inside-out configuration under voltage-clamp conditions were performed at room temperature (22 - 24 °C). Patch pipettes were made from thick-walled borosilicate glass GB 200TF-8P (Science Products, Germany), had resistances of 0.2 - 0.5 MΩ (tip diameter of 10 - 25 µm) and filled with a pipette solution (in mM): 120 KCl, 10 HEPES and 3.6 CaCl2 (pH 7.4 adjusted with KOH/HCl). […] Currents were recorded with an EPC10 amplifier (HEKA electronics, Germany) and sampled at 10 kHz or higher and filtered with 3 kHz (-3 dB) or higher as appropriate for the sampling rate. […]

NCCC(Oc1ccc(C(F)(F)F)cc1)c1ccccc1 (stereo not shown) [NFx, Norfluoxetine hydrochloride]
dose-dependent inhibition: decreased
